Measured values as given in US6339044B1, “N-P-Cyanoaryl nitrogen-containing heterocycles having pendent sulfur-containing groups” (Bayer Aktiengesellschaft, priority 1993, dated 2002).

What was measured:
[1] = tested on: Chenopodium; test: Post-emergence test, Chenopodium; format: in vivo; details: 30 g per hectare, after three weeks
Experimental: (§1) To prepare an expedient active compound preparation, 1 part by weight of active compound is mixed with the specified amount of solvent, the specified amount of emulsifier is added and the concentrate is diluted with water to the desired concentration.
(§2) Test plants which have a height of 5-15 cm are sprayed with the active compound preparation in such a way that the amounts of active compound per unit area desired in each case are applied. After three weeks, the degree of damage of the plants is evaluated in % damage in comparison with the development of the untreated control.
(§3) 0% denotes no effect (as untreated control)
(§4) 100% denotes total destruction

[2] = tested on: horseradish leaf beetle larvae Phaedon cochleariae; test: Phaedon larvae test; format: in vivo; details: after 3 days, active compound concentration 0.1%, cabbage leaves dipped
Experimental: Solvent: 7 parts by weight of dimethylformamide
Emulsifier: 1 part by weight of alkylaryl polyglycol ether
To produce an expedient active compound preparation, 1 part by weight of active compound is mixed with the specified amount of solvent and the specified amount of emulsifier and the concentrate is diluted with water to the desired concentration.
Cabbage leaves (Brassica oleracea) are treated by dipping them into the active compound preparation of the desired concentration and populated with horseradish leaf beetle larvae Phaedon cochleariae, as long as the leaves are still moist.
After the desired time, the destruction is determined in %. In the determination, 100% denotes that all beetle larvae have been destroyed; 0% denotes that no beetle larvae have been destroyed.

[3] = tested on: Veronica; test: Post-emergence test, Veronica; format: in vivo; details: 30 g per hectare, after three weeks
Experimental: as §1, §2, §3, §4

[4] = tested on: Solanum; test: Post-emergence test, Solanum; format: in vivo; details: 30 g per hectare, after three weeks
Experimental: as §1, §2, §3, §4

[5] = tested on: wheat; test: Pre-emergence test, wheat; format: in vivo; details: 60 g per hectare, after three weeks, cultivated plant
Experimental: as §1
Seeds of the test plants are sown in standard soil and are watered after 24 hours with the active compound preparation. The amount of water per unit area is expediently kept constant during this. The active compound concentration in the preparation is not important, only the application rate of the active compound per unit area is critical. After three weeks, the degree of damage of the plants is evaluated in % damage in comparison with the development of the untreated control. In the evaluation:
as §3, §4

[6] = tested on: Ipomoea; test: Post-emergence test, Ipomoea; format: in vivo; details: 30 g per hectare, after three weeks
Experimental: as §1, §2, §3, §4

[7] = tested on: Abutilon; test: Post-emergence test, Abutilon; format: in vivo; details: 30 g per hectare, after three weeks
Experimental: as §1, §2, §3, §4

[8] = tested on: wheat; test: Post-emergence test, wheat; format: in vivo; details: 30 g per hectare, after three weeks, cultivated plant
Experimental: as §1, §2, §3, §4

Row | Compound | degree of damage of the plants in % damage, Chenopodium [1] [%] | degree of destruction [2] [%] | degree of damage of the plants in % damage, Veronica [3] [%] | degree of damage of the plants in % damage, Solanum [4] [%] | degree of damage of the plants in % damage, wheat [5] [%] | degree of damage of the plants in % damage, Ipomoea [6] [%] | degree of damage of the plants in % damage, Abutilon [7] [%] | degree of damage of the plants in % damage, wheat [8] [%] | melting point [°C]
1 | Cn1c(C(F)(F)F)cc(=O)n(-c2cc(F)c(C#N)cc2F)c1=S [Example 3, 1-(4-cyano-2,5-difluoro-phenyl)-3,6-dihydro-2-thioxo-6-oxo-3-methyl-4-trifluoromethyl-1(2H)-pyrimidine] | 100 | 100 | 100 | 100 | 0 | 100 | 100 | 5 | –
2 | CCS(=O)(=O)Nc1cc(-n2c(=O)cc(C(F)(F)F)n(C)c2=S)c(F)cc1C#N [Example 4, 1-(4-cyano-2-fluoro-5-ethylsulphonylamino-phenyl)-3,6-dihydro-2-thio-6-oxo-3-methyl-4-trifluoromethyl-1(2H)-pyrimidine] | 100 | – | 100 | 100 | 0 | 100 | 100 | 5 | –
3 | CCS(=O)(=O)N(c1cc(-n2c(=O)cc(C(F)(F)F)n(C)c2=S)c(F)cc1C#N)S(C)(=O)=O [Example 32, 1-(4-cyano-2-fluoro-5-(N-ethylsulphonyl-N-methylsulphonyl-amino)-phenyl)-3,6-dihydro-2-thio-6-oxo-3-methyl-4-trifluoromethyl-1(2H)-pyrimidine] | – | – | – | – | – | – | – | – | 122
4 | CCS(=O)(=O)N(C)c1cc(-n2c(=O)cc(C(F)(F)F)n(C)c2=S)c(F)cc1C#N [Example 33, 1-(4-cyano-2-fluoro-5-(N-ethylsulphonyl-N-methyl-amino)-phenyl)-3,6-dihydro-2-thio-6-oxo-3-methyl-4-trifluoromethyl-1(2H)-pyrimidine] | – | – | – | – | – | – | – | – | 68
